The source of these data is patent US20220281931A1, “CHEMICALLY INDUCIBLE POLYPEPTIDE POLYMERIZATION” (Dana-Farber Cancer Institute, Inc., priority 2019, published 2022).

Structures are written as SMILES. Residues, ends and D or L forms follow the SMILES beside them. *: point of attachment. Cbz = O=C(OCc1ccccc1)*

One experiment deals with SuDHL4Cas9 cells. Nature of the experiment: Whole proteome quantification using tandem mass tag mass spectrometry. It counts as cell-based, human. Conditions: SuDHL4 cells, 1 μM compound, 4 hours. On the procedure:
10×10^6 SuDHL4Cas9 cells were treated with DMSO, 1 μM BI-3802 or 1 μM BI-3812 for 1 h or 4 h in triplicates and cells were harvested by centrifugation. Samples were processed, measured and analyzed as previously described (Donovan, K. A. et al. Thalidomide promotes degradation of SALL4, a transcription factor implicated in Duane Radial Ray syndrome. Ehfe 7, doi:10.7554/eLife.38430 (2018)). Data are available in the PRIDE repository (PXD016185).

Experiment [1] concerns the target T1, eGFPBCL6 stability reporter (Homo sapiens, UniProt P41182).
T1 construct: the full length BCL6 (BCL6^FL) was fused in-frame with eGFP; expressed in transfected cells; host or cells: HEK293TCas9 cells, lentiviral transduction (Artichoke vector)
Description: Degradation of BCL6 reporter constructs in HEK293T cells (flow cytometry). The settings on record: for effect on BI-3802-induced degradation of eGFPBCL6^FL: HEK293TCas9 cells, 0.5 μM MLN7243, 5 μM MLN4924 or 10 μM MG132 for 3 hours plus 1 μM BI-3802 for 1 hour. It counts as cell-based. On the procedure: Lentivirus was packaged in HEK293T cells using TransIT (Mirus) and subsequently used for spin infection.
HEK293TCas9 cells expressing indicated constructs in “Artichoke” or “Cilantro2” stability reporter vectors (PGK or SFFV Target-eGFP-IRES-mCherry, puromycin resistance) were plated in 96 well plates and treated for indicated times. BCL6-eGFP and mCherry expression were quantified by flow cytometry (CytoFLEX, Beckman or LSR Fortessa flow cytometer BD Biosciences). All degradation assays were done in at least triplicates. Geometric means of eGFP and mCherry fluorescent signals for live and mCherry positive cells were exported using flow cytometry analysis software (FlowJo, BD). Ratios of eGFP to mCherry were normalized to the average of DMSO-treated controls.
On the technique in general: Flow cytometry measures light scatter and fluorescence of single cells or particles in a stream.

Experiment [2] concerns the target T2, BCL6-eGFP fusion construct (Homo sapiens, UniProt P41182).
T2 construct: expressed in transfected cells; host or cells: HEK293TCas9 cells, lentiviral transduction (Cilantro2 vector)
Description: Live cell imaging of BCL6-eGFP foci in HEK293T cells. It counts as cell-based. Conditions: eGFPBCL6^1-250, 10 μM BI-3812 added 75 minutes after 1 μM BI-3802. The protocol:
1×10^3 HEK293T cells per cm^2 were seeded in a μ-Slide 8 Well chamber (ibidi) and cultured for 18-24 h under standard growth conditions. Cell culture medium was exchanged to CO2 independent media (Gibco) and imaged with the DeltaVision Ultra High-Resolution Microscope (GE Healthcare, 100×lens, oil refraction index=1.520). The following acquisition parameters were used: Image size […], binning 1×1, GFP exposure time 0.08 sec. and the Neutral Density (% T) filter 32%. To capture foci within all cell volume, around 26μm per cell was imaged every 0.4-0.5 μm. Images were deconvolved (10 cycles, conservative conditions) and projected using maximal intensity by softWoRx® 7.0.0. Images for movies were taken every 10 minutes and combined to a movie by QuickTime.

The next experiment deals with T3, BCL6^5-360 - SIAH1^SBD (Homo sapiens, UniProt P41182).
T3 construct: 200 nM BodipyFL-labeled BCL6^5-360 variants; His6 (N); Spy (C); made in house; host or cells: Trichoplusia ni High Five insect cells, baculovirus
Description: BCL6-SIAH1 TR-FRET. It counts as biochemical. Conditions: in vitro, increasing compound concentration. On the procedure:
After dispensing the assay mixture (15 μL volume), increasing concentrations of compounds were dispensed in a 384-well microplate (Corning, 4514) using a D300e Digital Dispenser (HP) normalized to 1% DMSO. After excitation of terbium fluorescence at 337 nm, emission at 490 nm (terbium) and 520 nm (BodipyFL) were recorded with a 70 us delay over 600 μs to reduce background fluorescence, and the reaction was followed over 60 cycles of each data point using a PHERAstar FS microplate reader (BMG Labtech). The TR-FRET signal of each data point was extracted by calculating the 520/490 nm ratio. The half-maximal effective concentration (EC50) values were estimated using dose-response analysis standard four parameter log-logistic curves, fitted to the experimental data using […] package. […] After dispensing the assay mixture, increasing concentration of BodipyFL-BCL6^5-360 was added to the SIAH1 mixture in a […] (7.5 μL each, total 15 μL assay volume). The 520/490 nm ratios were measured in as described above and plotted to calculate the KD^APP values using dose-response analysis standard four parameter log-logistic curves using […] package.
(In general: TR-FRET usually uses a lanthanide donor and a delayed reading to cut background.)

The next experiment addresses T4, BCL6^5-129 (Homo sapiens, UniProt P41182).
T4 construct: mixing 100 nM biotinylated BCL6^5-129, 100 nM N-terminal FITC-labeled BCoR peptide; made in house; host or cells: Trichoplusia ni High Five insect cells, baculovirus
Description: BCL6-BCoR TR-FRET (compound binding assay). Conditions: 0.1 μM FITCBCoR polypeptide, 0.1 μM BiotinBCL6^5-129. On the procedure:
Competitive titration of BI-3802 or BI-3812 were carried out by mixing 100 nM biotinylated BCL6^5-129, 100 nM N-terminal FITC-labeled BCoR peptide (sequence: […]), and 2 nM terbium-coupled streptavidin in the same assay buffer. After dispensing the assay mixture (15 μL volume), increasing concentrations of compounds were dispensed in a 384-well microplate (Corning, 4514) using a D300e Digital Dispenser (HP) normalized to 1% DMSO. The 520/490 nm ratios were measured as described above and plotted to calculate the KD^APP values using dose-response analysis standard four parameter log-logistic curves using the dr4pl R package.

`CNC(=O)COc1cc2cc(Nc3nc(N4CCC(C(=O)N(C)C)CC4)ncc3Cl)cc(OC)c2n(C)c1=O` [BI-3812, 1-(5-chloro-4-((8-methoxy-1-methyl-3-(2-(methylamino)-2-oxoethoxy)-2-oxo-1,2-dihydroquinolin-6-yl)amino)pyrimidin-2-yl)-N,N-dimethylpiperidine-4-carboxamide]: the “change in polypeptide abundance (whole proteome)” value in the experiment with SuDHL4Cas9 cells is listed as “did not alter the abundance of any polypeptide”. Besides, the “block of BI-3802-induced BCL6 degradation” value in experiment [1] (HEK293T cells expressing eGFPBCL6^1-275, simultaneous BI-3802 and excess BI-3812, 24 hours) was “efficiently blocked BI-3802-induced BCL6 degradation”. In addition, the “degradation of full-length BCL6 reporter (eGFPBCL6^FL)” value in experiment [1] (HEK293T cells, 1 μM, 1 hour) is given as “did not alter stability of the reporter”. Moreover, in experiment [2], the “reversal of BI-3802-induced foci” value is “fully reversible”. The “effect on the BCL6-SIAH1 interaction (TR-FRET)” value at BCL6^5-360 - SIAH1^SBD is “did not influence the BCL6-SIAH1 interaction”. Also, the “affinity of compound to BCL6 (BCoR peptide competition)” value at BCL6^5-129 is on record as “comparable affinity”.
Regarding `CC(C)C[C@@H](C=O)NC(=O)[C@H](CC(C)C)NC(=O)[C@H](CC(C)C)NC(=O)OCc1ccccc1` [MG132] (Cbz-Leu-Leu-Leu-aldehyde), the “effect on BI-3802-induced degradation of eGFPBCL6^FL” value in experiment [1] is on record as “attenuated”.
Still for that read-out and setting: the result for `NS(=O)(=O)OC[C@@H]1C[C@@H](n2ccc3c(N[C@H]4CCc5ccccc54)ncnc32)C[C@@H]1O` [MLN4924] reads “not by inhibition of the neddylation pathway with MLN4924”.
Turning to `NS(=O)(=O)OC[C@H]1C[C@@H](Nc2ccnc3cc(-c4cccc(SC(F)(F)F)c4)nn23)[C@H](O)[C@@H]1O` [MLN7243], in experiment [1], the “effect on BI-3802-induced degradation of eGFPBCL6^FL” value is on record as “attenuated”.
